Source: publication PMC4892293 (Drug Design, Development and Therapy, 2016)

Molecular target: T1, human recombinant PPARγ (Homo sapiens, UniProt P37231)
T1 sequence (P37231 1-505): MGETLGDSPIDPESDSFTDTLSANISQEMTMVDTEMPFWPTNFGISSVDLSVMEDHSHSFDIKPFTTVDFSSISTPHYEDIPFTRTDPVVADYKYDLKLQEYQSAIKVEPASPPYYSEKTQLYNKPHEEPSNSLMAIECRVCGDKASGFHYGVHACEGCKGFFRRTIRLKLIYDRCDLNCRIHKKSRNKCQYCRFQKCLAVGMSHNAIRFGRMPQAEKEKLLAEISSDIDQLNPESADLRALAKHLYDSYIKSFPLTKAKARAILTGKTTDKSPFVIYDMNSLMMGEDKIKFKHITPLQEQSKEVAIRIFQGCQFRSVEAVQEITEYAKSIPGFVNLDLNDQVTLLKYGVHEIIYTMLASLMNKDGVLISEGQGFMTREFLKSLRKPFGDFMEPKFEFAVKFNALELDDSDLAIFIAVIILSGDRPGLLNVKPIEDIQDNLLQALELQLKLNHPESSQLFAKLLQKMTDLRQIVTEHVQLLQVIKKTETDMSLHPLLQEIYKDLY
Experiment: FP-based PPARγ ligand screening assay
Format: binding
Details: concentration of 10.0 μM; Figure 2

- agonistic activity in primary FP screening: unable to promote agonistic activity
Substance: 4-((5-(4-Chlorophenyl)-4-methylthiazol-2-yl)amino)-4-oxobutanoic acid [Compound 4f]
